From patent US10881110B2, “Herbicidal compositions comprising isoxazolo[5,4-b]pyridines” (BASF SE, priority 2014, dated 2021) come the findings set out here.

Holding throughout (experiment): greenhouse post-emergence herbicidal test
One assay relates to ABUTH. Format: in vivo, Abutilon theophrast. Also on record: key to herbicidal activity against ABUTH found: rating on a scale from 0 to 100. To be noted: post emergence. On the procedure: (§1) The culture containers used were plastic pots containing medium loamy sand with approximately 4.6% of humus and 69.9% sand as substrate. The seeds of the test plants were sown separately for each species.
(§2) For the post-emergence treatment, the test plants were grown to a plant height of from 1 to 15 cm, depending on the plant habit, and only then treated with the active compounds which had been suspended or emulsified in water. To this end, the test plants were either sown directly, and grown in the same containers, or they were first grown separately as seedlings and transplanted into the test containers a few days prior to treatment.
(§3) Depending on the species, the plants were kept at 10-25° C. and 20-35° C., respectively.
(§4) The test period extended over 1 to 3 weeks. During this time, the plants were tended and their response to the individual treatments was evaluated 20 days after treatment except mentioned otherwise.
(§5) Evaluation was carried out using a scale from 0 to 100. 100 means no emergence of the plants, or complete destruction of at least the above-ground parts, and 0 means no damage or normal course of growth.
(§6) The respective stated components A and B, and, if appropriate, C, were formulated as a 10% by weight strength emulsion concentrate and, with addition of the amount of solvent system, introduced into the spray liquor used for applying the active compound. In the examples, the solvent used was water.
(§7) In the examples below, using the method of S. R. Colby (1967) “Calculating synergistic and antagonistic responses of herbicide combinations”, Weeds 15, p. 22 ff., the value E, which is expected if the activity of the individual active compounds is only additive, was calculated. E=X+Y−(X·Y/100)

A further assay concerns MATCH. Type of assay: in vivo, Matricaria recutita. Details: key to herbicidal activity against MATCH found: rating on a scale from 0 to 100. To be noted: post emergence. On the procedure:
as §1, §2, §3, §4, §5, §6, §7

The next assay has as its system ERICA. Format: in vivo, Conyza canadensis. Also on record: key to herbicidal activity against ERICA found: rating on a scale from 0 to 100. To be noted: post emergence. Here is the method: as §1, §2, §3, §4, §5, §6, §7
A further assay has as its system GALAP. Format: in vivo, Galium aparine. Details: key to herbicidal activity against GALAP found: rating on a scale from 0 to 100. To be noted: post emergence. Here is the method: as §1, §2, §3, §4, §5, §6, §7
A further assay deals with VIOAR. Type of assay: in vivo, Viola arvensis. Also on record: key to herbicidal activity against VIOAR found / herbicidal activity against VIOLA found: rating on a scale from 0 to 100. To be noted: post emergence. Here is the method: as §1, §2, §3, §4, §5, §6, §7
The test system of a further assay is ALOMY. Type of assay: in vivo, Alopecurus myosuroides. Details: key to herbicidal activity against ALOMY found: rating on a scale from 0 to 100. To be noted: post emergence. Here is the method:
as §1, §2, §3, §4, §5, §6, §7

Another assay has as its system POLCO. Type of assay: in vivo, Polygonum convolvulus. Also on record: key to herbicidal activity against POLCO found: rating on a scale from 0 to 100. To be noted: post emergence. Here is the method:
as §1, §2, §3, §4, §5, §6, §7

Another assay has as its system APESV. Type of assay: in vivo, Apera spica-venti. Also on record: key to herbicidal activity against APESV found: rating on a scale from 0 to 100. To be noted: post emergence. On the procedure: as §1, §2, §3, §4, §5, §6, §7
A further assay concerns GERDI. Type of assay: in vivo, Geranium dissectum. To be noted: Geranium dissectum, post-emergence, 480 h, post emergence, read-out: herbicidal activity against GERDI found. Here is the method: as §1, §2, §3, §4, §5, §6, §7
The mark [1] stands for this setting: applied alone at 31.25 g/ha a.i.
Where [2] appears, read: applied alone at 62.5 g/ha a.i.

For `O=C(O)COc1ccc(Cl)cc1Cl` [B.140, 2,4-D], the “herbicidal activity against ABUTH found” value in the assay with ABUTH (setting [1]) is on record as 35; in the assay on ABUTH (setting [2]), 85. Besides, the “herbicidal activity against MATCH found” value with MATCH (setting [1]) is reported as 0. In addition, the “herbicidal activity against ERICA found” value is on record as 70 in the assay on ERICA (setting [1]) and 80 with ERICA (setting [2]). Further, the “herbicidal activity against GALAP found” value with GALAP (setting [1]) and in the assay with GALAP (setting [2]) was 0 in each case. Also, the “herbicidal activity against VIOAR found” value was 60 in the assay with VIOAR (setting [1]) and 65 in the assay on VIOAR (setting [2]). The “herbicidal activity against ALOMY found” value with ALOMY (setting [1]) and with ALOMY (setting [2]) was 0 throughout. Further, the entries for the “herbicidal activity against POLCO found” value in the assay on POLCO (setting [1]) and in the assay on POLCO (setting [2]) were 65 and 75, respectively.

In the case of `COc1nn(C(=O)NS(=O)(=O)c2c(C(=O)O)csc2C)c(=O)n1C` [thiencarbazone], the “herbicidal activity against ERICA found” value with ERICA (applied alone at 0.5 g/ha a.i.) is listed as 85. In addition, the “herbicidal activity against APESV found” value in the assay on APESV (applied alone at 0.5 g/ha a.i.) came to 25.

Consider `CCCC(=NOCC(C)Oc1ccc(Cl)cc1)C1=C(O)CC(C2CCCSC2)CC1=O` (stereo not shown) [B.9, profoxydim], for which the “herbicidal activity against ABUTH found” value in the assay with ABUTH (applied alone at 6 g/ha a.i.) is on record as 0; in the assay on ABUTH (applied alone at 12 g/ha a.i.), 40. For the same molecule, the “herbicidal activity against ALOMY found” value with ALOMY (applied alone at 12 g/ha a.i.) came out at 25. The “herbicidal activity against APESV found” value in the assay with APESV (applied alone at 6 g/ha a.i.) stood at 15; in the assay on APESV (applied alone at 12 g/ha a.i.) it was 55. Moreover, in the assay on POLCO (applied alone at 12 g/ha a.i.), the “herbicidal activity against POLCO found” value is given as 0.

Consider `CCCCCCCC/C=C\CCCCCCCC(=O)OC` [methyl oleate], for which the pest or weed control at 6 g/ha with ABUTH (Abutilon theophrasti, post-emergence, 480 h, methyl oleate 6 g/ha a.i., read-out: herbicidal activity against ABUTH found) was 0%; in the assay with MATCH (Matricaria chamomilla, post-emergence, 480 h, methyl oleate 6 g/ha a.i., read-out: herbicidal activity against MATCH found), 0%; in the assay on ERICA (Erigeron canadensis, post-emergence, 480 h, methyl oleate 6 g/ha a.i., read-out: herbicidal activity against ERICA found), 0%; with POLCO (Fallopia convolvulus, post-emergence, 480 h, methyl oleate 6 g/ha a.i., read-out: herbicidal activity against POLCO found), 0%; with GERDI (methyl oleate 6 g/ha a.i.), 0%. For the same molecule, the pest or weed control at 12 g/ha in the assay with ABUTH (Abutilon theophrasti, post-emergence, 480 h, methyl oleate 12 g/ha a.i., read-out: herbicidal activity against ABUTH found) was determined as 0%; in the assay with MATCH (Matricaria chamomilla, post-emergence, 480 h, methyl oleate 12 g/ha a.i., read-out: herbicidal activity against MATCH found), 0%; in the assay with ERICA (Erigeron canadensis, post-emergence, 480 h, methyl oleate 12 g/ha a.i., read-out: herbicidal activity against ERICA found), 0%; in the assay on GALAP (Galium aparine, post-emergence, 480 h, methyl oleate 12 g/ha a.i., read-out: herbicidal activity against GALAP found), 0%; in the assay with POLCO (Fallopia convolvulus, post-emergence, 480 h, methyl oleate 12 g/ha a.i., read-out: herbicidal activity against POLCO found), 0%; in the assay on GERDI (methyl oleate 12 g/ha a.i.), 0%. Further, the pest or weed control at 3 g/ha with MATCH (Matricaria chamomilla, post-emergence, 480 h, methyl oleate 3 g/ha a.i., read-out: herbicidal activity against MATCH found) came out at 0%; with ERICA (Erigeron canadensis, post-emergence, 480 h, methyl oleate 3 g/ha a.i., read-out: herbicidal activity against ERICA found) it was 0%; with POLCO (Fallopia convolvulus, post-emergence, 480 h, methyl oleate 3 g/ha a.i., read-out: herbicidal activity against POLCO found), 0%; with GERDI (methyl oleate 3 g/ha a.i.) it was 0%.

For `CCCOCCN(C(=O)CCl)c1c(CC)cccc1CC` [B.135, pretilachlor], the pest or weed control at 100 g/ha in the assay on ABUTH (Abutilon theophrasti, post-emergence, 480 h, B.135 100 g/ha a.i., read-out: herbicidal activity against ABUTH found) was 0%; in the assay with ERICA (Erigeron canadensis, post-emergence, 480 h, B.135 100 g/ha a.i., read-out: herbicidal activity against ERICA found), 0%; in the assay with GERDI (B.135 100 g/ha a.i.) it was 0%. In addition, the pest or weed control at 200 g/ha in the assay on ABUTH (Abutilon theophrasti, post-emergence, 480 h, B.135 200 g/ha a.i., read-out: herbicidal activity against ABUTH found) amounted to 0%; with MATCH (Matricaria chamomilla, post-emergence, 480 h, B.135 200 g/ha a.i., read-out: herbicidal activity against MATCH found), 0%; in the assay on ERICA (Erigeron canadensis, post-emergence, 480 h, B.135 200 g/ha a.i., read-out: herbicidal activity against ERICA found), 0%; in the assay on GALAP (Galium aparine, post-emergence, 480 h, B.135 200 g/ha a.i., read-out: herbicidal activity against GALAP found), 0%; in the assay on POLCO (Fallopia convolvulus, post-emergence, 480 h, B.135 200 g/ha a.i., read-out: herbicidal activity against POLCO found) it was 0%; in the assay on GERDI (B.135 200 g/ha a.i.), 0%. In addition, the pest or weed control at 400 g/ha in the assay on ABUTH (Abutilon theophrasti, post-emergence, 480 h, B.135 400 g/ha a.i., read-out: herbicidal activity against ABUTH found) came out at 0%; with MATCH (Matricaria chamomilla, post-emergence, 480 h, B.135 400 g/ha a.i., read-out: herbicidal activity against MATCH found) it was 0%; in the assay on ERICA (Erigeron canadensis, post-emergence, 480 h, B.135 400 g/ha a.i., read-out: herbicidal activity against ERICA found), 20%; with GERDI (B.135 400 g/ha a.i.), 0%.
